Measured values: paper PMC12269843, “The molecular basis of T cell receptor recognition of citrullinated tenascin-C presented by HLA-DR4” (The Journal of Biological Chemistry, 2025)
Where a SMILES comes first, the peptide text is derived from it.

Legend:
Test in all cases: Fluorescence polarization peptide competition assay
HLA-DRB1^∗04:01 = molecular target: T1, HLA-DRB1^∗04:01 (Homo sapiens, UniProt P01903+P01911, A100K/A169T/F76Y/I96L/K127E/L162R/M171V/N62H/P40V/Q125Y/R42H/S133A/S149N/S66Y/V115G/V209L/W38E); settings: competition with 20 nM TAMRA-HA, 100 nM HLA-DRB1, 20 nM HLA-DM, 100 mM trisodium citrate pH 5.4, 50 mM NaCl, 5 mM EDTA, 37 °C, 24-72 h, two independent experiments in triplicate, read-out: IC50, competitive binding to DRB1^∗04:01
T1 construct: the extracellular domains of the α-chain and β-chain of HLA-DRB1^∗04:01; Fos/Jun leucine zipper (C); invariant chain (CLIP) peptide, covalently linked; made in house
Method: (§1) The fluorescent polarization was measured by PHERAstar microplate reader (BMG LABTECH) after 24 h, 48 h and 72 h incubation at 37 °C. The peptide binding curves were plotted by non-linear regression in Prism 10 (GraphPad Software, version 10.2.0) using a sigmoidal dose-response curve. […] All data were derived from two independent experiments in triplicate.

HLA-DRB1^∗01:01 = HLA-DRB1^∗01:01 (Homo sapiens, UniProt P01903+P01911, A100R/D57E/F55L/F60I/F76Y/I96L/L162R/M171V/P40L/Q125E/R42F/V115G/Y59C); settings: competition with 20 nM TAMRA-HA, 100 nM HLA-DRB1, 20 nM HLA-DM, 100 mM trisodium citrate pH 5.4, 50 mM NaCl, 5 mM EDTA, 37 °C, 24-72 h, two independent experiments in triplicate, read-out: IC50, competitive binding to DRB1^∗01:01
Method: as §1
HLA-DRB1^∗04:04 = HLA-DRB1^∗04:04 (Homo sapiens, UniProt P01903+P01911, A100R/A169T/F76Y/I96L/K127E/L162R/M171V/N62H/P40V/Q125Y/R42H/S133A/S149N/S66Y/V209L/W38E); settings: competition with 20 nM TAMRA-HA, 100 nM HLA-DRB1, 20 nM HLA-DM, 100 mM trisodium citrate pH 5.4, 50 mM NaCl, 5 mM EDTA, 37 °C, 24-72 h, two independent experiments in triplicate, read-out: IC50, competitive binding to DRB1^∗04:04
Method: as §1
HLA-DRB1^∗04:05 = HLA-DRB1^∗04:05 (Homo sapiens, UniProt P01903+P01911, A100R/A169T/D86S/F76Y/I96L/K127E/L162R/M171V/N62H/P40V/Q125Y/R42H/S133A/S149N/S66Y/V115G/V209L/W38E); settings: competition with 20 nM TAMRA-HA, 100 nM HLA-DRB1, 20 nM HLA-DM, 100 mM trisodium citrate pH 5.4, 50 mM NaCl, 5 mM EDTA, 37 °C, 24-72 h, two independent experiments in triplicate, read-out: IC50, competitive binding to DRB1^∗04:05
Method: as §1
HLA-DRB1^∗14:02 = HLA-DRB1^∗14:02 (Homo sapiens, UniProt P01903+P01911, A100R/A169T/D57E/F76Y/I96L/K41T/L162R/M171V/P40S/Q125H/Q178H/Q39Y/R42S/S66N/T262R/V115G/W38E/Y61H); settings: competition with 20 nM TAMRA-HA, 100 nM HLA-DRB1, 20 nM HLA-DM, 100 mM trisodium citrate pH 5.4, 50 mM NaCl, 5 mM EDTA, 37 °C, 24-72 h, two independent experiments in triplicate, read-out: IC50, competitive binding to DRB1^∗14:02
Method: as §1

CC(C)C[C@H](NC(=O)[C@H](CCCNC(N)=O)NC(=O)[C@H](Cc1ccc(O)cc1)NC(=O)[C@H](CCCNC(N)=O)NC(=O)[C@@H](N)CC(=O)O)C(=O)N[C@@H](CC(N)=O)C(=O)N[C@@H](Cc1ccc(O)cc1)C(=O)N[C@@H](CO)C(=O)N[C@@H](CC(C)C)C(=O)N1CCC[C@H]1C(=O)N[C@H](C(=O)NCC(=O)O)[C@@H](C)O [TNC^1014,1016cit] (HELM PEPTIDE1{D.[Cit].Y.[Cit].L.N.Y.S.L.P.T.G}$$$$V2.0)
IC50 (HLA-DRB1^∗04:01): 1140 nM
IC50 (HLA-DRB1^∗01:01): 800 nM
IC50 (HLA-DRB1^∗04:04): > 300000 nM
IC50 (HLA-DRB1^∗04:05): 4810 nM
IC50 (HLA-DRB1^∗14:02): 1310 nM
